Reference: US5017723A, “Substituted ethylamines, their preparation process, their use as medicine and their synthesising agents” (Jouveinal S.A., priority 1990, dated 1991)
Like-named read-outs stand apart in the source and are kept apart here.

Experiments:
[1] = tested on: convulsion induced by picrotoxine in mice; assay: Protection against picrotoxine-induced convulsion (suppression of the tonic extension phase); type: in vivo, male Swiss mice; details: Mus musculus
From the text: The psychotropic properties of the compounds have been determined by the protection of the induced convulsion by picrotoxine for mice, which is achieved by the method derived from that of Krall et al., "Epilepsia", 1978, 19, p. 409-428.
The administration of picrotoxine caused a convulsive crisis in the animal characterised by a myoclonic extension syndrome followed by the extension of the limbs causing the animal to die. Certain substances, particularly those active on the complex GABA/benzodiazepines/Cl-ionophore makes it possible to protect the animals from this convulsive crisis.
In practice the study is carried out on batches of 10 male "Swiss" mice weighing approximately 20 g, which are administered with the product to be studied in aqueous solution either by intraperitoneal route (i.p.) at the rate of 50 mg/kg and in a volume of 0.2 ml of solution per animal, or by oral route (p.o) in a volume of 2.0 ml of solution per animal.
An injection of a solution of picrotoxine at the rate of 24 mg/kg in a volume of 0.2 ml per animal is then administered by interperitoneal route, either 30 minutes after administering the product by interperitoneal route or 60 minutes after administering the product by oral route. The dose of the product injected causing a clonic crisis, which results in untreated animals dying. The suppression of the extension tonic phase in the animals treated under the conditions of the test is observed. The results are expressed:
either in percentages of protected animals of this phase to the reaction of 50 mg/kg of the compound of the study administered by i.p. route or 100 mg/kg by p.o route,
or in DE50 for each of these routes, which is the efficient dosage of the test compound expressed in mg/kg protecting 50% of the animals of this extension phase. The significant value of the results being generally indicated in the following manner:
* Significant result at p<0.05
** Significant result at p<0.01
*** Significant highly significant at p<0.001.

opiated mu receptor [2] = biological target: opiated mu receptor (Cavia porcellus, UniProt A0ACM8Q262); type: binding, guinea pig; details: inhibition of 50% of radioligand bonds; read-out: CI50 affinity mu rec.
Protocol: (§1) The analysis is carried out in accordance with the technique described by F. Roman et al. in J. Pharm. Pharmcol. 1987, 39, p. 404-407 which consists of analysing the displacement of specific radioactive ligands of the opiated mu, delta and kappa sub receptors by the action of the test products on the membranous receptors of a guinea pig.

opiated mu receptor [3] = type: binding, guinea pig; details: opiated receptors, compared with morphine
Protocol: as §1

opiated delta receptor = biological target: T1, opiated delta receptor (Cavia porcellus, UniProt A0A286XTF2); assay: Displacement of specific radioactive ligands, opiated delta receptor; type: binding, guinea pig; details: inhibition of 50% of radioligand bonds; read-out: CI50 affinity delta rec.
T1 construct: membranous receptors of a guinea pig; from tissue
Protocol: as §1

opiated kappa receptor = biological target: T2, opiated kappa receptor (Cavia porcellus, UniProt P41144); assay: Displacement of specific radioactive ligands, opiated kappa receptor; type: binding, guinea pig; details: inhibition of 50% of radioligand bonds; read-out: CI50 affinity kappa rec.
T2 construct: membranous receptors of a guinea pig; from tissue
Protocol: as §1

bladder of the rat = assay: Transvesical cystomanometry on wide awake rat (urological activity); type: in vivo, female rat; details: for activity on the urinary tract compared to the reference compounds (in words): compared to Dicyclomine and Baclofen; for change in vivo at 1 mg/kg / change in vivo at 5 mg/kg: Rattus norvegicus, iv; for change in vivo at 1 mg/kg: 1,0 mg/kg i.v.; for change in vivo at 5 mg/kg: 5,0 mg/kg i.v.
Protocol: Studies by a similar method of operation, the compounds of the invention (I.A) which show a mu and kappa affinity also have an activity on certain functional parameters of the bladder of the rat which justifies their interest in the treatment of dysfunctions in the urinary tract.
The study carried out consists of transvesical cystomanometry on a wide awake rat. The following was measured during the storage and emission phases of urine under continuous intervesical perfusion of sterile physiological serum:
the "threshold pressure", which is the intervesical pressure immediately preceding the contraction phase of the detrusor
the volume of each urinary emission.
The technique used in the female rat consisted of preparing the animals 48 hours before the actual experiment by effecting the implantation of two catheters in the apex of the bladder and one catheter in the left-hand jugular vein under anaesthetic, with the external end of these catheters being protected and held by a sticking plaster corset.
The animals were placed in suitable cages at the time of the test, which were equipped so as to collect and measure the urine. For each animal one vesical catheter was connected to a pressure sensor, the other to a perfusor which supplied 0.2 ml/min. of sterile physiological serum continuously.
The intravesical pressure was measured continuously during the perfusion and it was possible to observe:
a filling phase of the bladder during which the pressure increased progressively,
a sudden rising phase of this pressure during the contraction of the detrusor: the "threshold" pressure which is the pressure observed just before the pressure of the contraction phase. This threshold pressure was raised in the same way as the urinary volume at each urination.
The study consisted of observing the changes in these parameters by the action of the products (IA) which were administered in solution by intravenous route by means of the catheter placed in the left jugular vein.
Dicyclomine and Baclofen which have been considered for the treatment of hyperactive bladders (Drugs of Today, Vol. 24, no. 5, 1988, p. 337-348) were also used in this test in the form of comparison products.

[4] = read-out: % variation pressure threshold

T2 sequence (P41144 whole entry): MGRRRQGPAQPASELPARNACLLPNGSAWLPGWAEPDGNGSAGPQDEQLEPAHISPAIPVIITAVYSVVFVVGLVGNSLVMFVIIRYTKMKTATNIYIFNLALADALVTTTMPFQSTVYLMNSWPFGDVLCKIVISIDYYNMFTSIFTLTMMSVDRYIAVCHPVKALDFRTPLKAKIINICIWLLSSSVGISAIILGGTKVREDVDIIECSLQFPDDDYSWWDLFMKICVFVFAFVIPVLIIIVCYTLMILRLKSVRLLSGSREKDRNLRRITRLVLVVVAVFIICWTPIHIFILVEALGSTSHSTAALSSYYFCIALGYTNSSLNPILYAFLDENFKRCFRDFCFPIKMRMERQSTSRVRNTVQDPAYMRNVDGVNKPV
T1 sequence (A0A286XTF2 1-366): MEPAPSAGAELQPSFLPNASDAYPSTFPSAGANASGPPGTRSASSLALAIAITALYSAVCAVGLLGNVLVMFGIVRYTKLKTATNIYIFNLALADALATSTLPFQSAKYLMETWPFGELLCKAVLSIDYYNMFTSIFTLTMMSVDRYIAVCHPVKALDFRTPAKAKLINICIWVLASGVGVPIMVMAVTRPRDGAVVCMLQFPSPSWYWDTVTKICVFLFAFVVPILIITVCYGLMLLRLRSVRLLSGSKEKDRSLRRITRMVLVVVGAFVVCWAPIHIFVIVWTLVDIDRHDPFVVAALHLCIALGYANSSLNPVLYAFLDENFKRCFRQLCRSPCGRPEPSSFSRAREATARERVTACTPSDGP
opiated mu receptor (Cavia porcellus, UniProt A0ACM8Q262), sequence (A0ACM8Q262 1-400): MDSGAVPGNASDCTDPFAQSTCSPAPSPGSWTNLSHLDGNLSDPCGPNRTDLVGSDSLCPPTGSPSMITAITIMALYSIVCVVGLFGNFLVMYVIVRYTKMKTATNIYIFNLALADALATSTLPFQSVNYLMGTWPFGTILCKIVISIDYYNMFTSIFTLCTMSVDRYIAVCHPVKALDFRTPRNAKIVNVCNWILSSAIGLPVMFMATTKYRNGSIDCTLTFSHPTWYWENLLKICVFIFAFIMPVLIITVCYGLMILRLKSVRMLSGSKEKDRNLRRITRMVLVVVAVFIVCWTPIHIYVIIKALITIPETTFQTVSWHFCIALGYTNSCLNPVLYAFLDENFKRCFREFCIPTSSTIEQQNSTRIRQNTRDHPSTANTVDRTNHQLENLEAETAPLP

Row | SMILES | ED50 ([1]; ip, read-out: i.p.: DE50) | ED50 ([1]; po, read-out: p.o.: DE50) | IC50 (opiated mu receptor [2]) | affinity with the receptors compared with morphine (in words) (opiated mu receptor [3]) | IC50 (opiated delta receptor) | IC50 (opiated kappa receptor) | activity on the urinary tract compared to the reference compounds (in words) (bladder of the rat) | change in vivo at 1 mg/kg (bladder of the rat; [4]) | change in vivo at 1 mg/kg (bladder of the rat; read-out: % variation volume) | responders at 50 mg/kg ([1]; ip, 0.5 h, read-out: i.p.: % prot. (percentage of protected animals), 50 mg/kg i.p., picrotoxine 24 mg/kg i.p. 30 min later, * p<0.05, ** p<0.01, *** p<0.001) | responders at 100 mg/kg ([1]; po, 1 h, read-out: p.o.: % prot. (percentage of protected animals), 100 mg/kg p.o., picrotoxine 24 mg/kg i.p. 60 min later, * p<0.05, ** p<0.01, *** p<0.001) | change in vivo at 5 mg/kg (bladder of the rat; [4]) | change in vivo at 5 mg/kg (bladder of the rat; read-out: % variation volume)
1 | CCC(CC=Cc1ccc(Cl)c(Cl)c1)(c1ccc(C)cc1)N(C)C (stereo not drawn) [Example 44, a-(3',4'-dichloro) cinnamyl-N,N-dimethyl-a-ethyl-p.methylbenzylamine] | 21.4 mg/kg | 23.9 mg/kg | 4 nM | same order of intensity as the reference products | 223 nM | 110 nM | important activity |  |  |  |  |  | 
2 | CCC(CC=Cc1ccc(Cl)c(Cl)c1)(c1ccc(Cl)cc1)N(C)C (stereo not drawn) [Example 43, a-(3',4' dichloro) cinnamyl-N,N-dimethyl-a-ethyl-p.chlorobenzylamine] |  |  | 16 nM | same order of intensity as the reference products | 434 nM | 197 nM | important activity | 109% | 91% |  |  |  | 
3 | CNC(CC=Cc1ccc(Cl)c(Cl)c1)(c1ccccc1)C(C)C (stereo not drawn) [Example 23, a-(3',4'-dichloro)cinnamyl-a-isopropyl-N-methyl-benzylamine] |  |  | 80 nM |  | 1380 nM | 340 nM |  |  |  | 60% | 100% | 196% | 35%
4 | CCC(CC=Cc1ccc(Cl)c(Cl)c1)(c1ccc(OC)cc1)N(C)C (stereo not drawn) [Example 46, a-(3',4'-dichloro)cinnamyl-N,N-dimethyl-a-ethyl-p.metoxybenzylamine] | 29.8 mg/kg | 35.4 mg/kg | 12 nM | same order of intensity as the reference products | 260 nM | 235 nM | important activity | 111% | 44% |  |  |  | 
